The values that follow come from patent publication US10744201B2, “Method for treating rheumatoid arthritis with a human IL-6 receptor antibody and methotrexate” (Chugai Seiyaku Kabushiki Kaisha, priority 2003, dated 2020).

Data set [1] relates to patients with active rheumatoid arthritis. Briefly: Phase II trial: reduction of swollen joint count. It counts as in vivo, human. How it is done:
(§1) The efficacy, safety and tolerability of MRA were assessed.
Reduction of Swollen Joint Count (Table 2)
The mean swollen joint count was similar across all the treatment groups at baseline.

Data set [2] has the same test system. Briefly: Phase II trial of MRA alone and with methotrexate: ACR 20/50/70 improvement rates. The data set is classed as in vivo, human. Particulars: for ACR 20 / ACR 50 / ACR 70: 16 weeks. Here is the method: as §1
Study design: a double-blind, randomized, parallel group study by central randomization method
ACR improvement criteria: The cases where among the following 7 items, the number of swelling joints and the number of pain joints are improved by 20% or more and improvement by 20% or more is observed in three out of the remaining five items are determined as 20% or more improvement in ACR criteria. Further, 50% and 70% improvement cases indicate the patient cases where the above 20% improved parts are improved by 50% and 70%, respectively.
(1) Number of swelling joints
(2) Number of tender joints
(3) Pain assessment by a patient
(4) Global assessment of disease activity by a patient
(5) Global disease activity by a physician
(6) Assessment of physical function by a patient

Data set [3] shares this test system. Briefly: Phase II trial: development of anti-MRA antibodies. It counts as in vivo, human. The following applies: 8 mg/kg treatment groups. Here is the method:
as §1
The development of anti-MRA antibodies was examined. None occurred at the 8 mg/kg treatment groups (monotherapy or combination with MTX). At 2 or 4 mg/kg treatment groups, the number of incidents was less in groups in combination with MTX than MRA monotherapy groups.

The test system is the same in data set [4]. Briefly: Phase II trial: safety (adverse events, laboratory data, infusion reaction). The following applies: for serious adverse events of which causal relationship could not be denied: hypersensitivity: no combination with MTX, after the 3rd or 4th MRA administration.
Protocol: Subjects: Patients with rheumatoid arthritis diagnosed based on the 1987 disease classification of the American College of Rheumatology (ACR), of at least 6 months duration were enrolled.
Dosage and Administration: Seven groups: 0 mg/kg (placebo)+MTX, 2 mg/kg MRA+MTX, 4 mg/kg MRA+MTX, 8 mg/kg MRA+MTX, 2 mg/kg MRA+MTX placebo, 4 mg/kg MRA+MTX placebo, and 8 mg/kg MRA+MTX placebo. MRA or placebo administration is given by intravenous infusion, at 4-week intervals. MTX or MTX placebo administration is given orally, once weekly, at 10-25 mg/week.
Study Method: The assigned dose was administered by intravenous infusion, four times in total at 4-week intervals, and efficacy and safety were evaluated at 2-week intervals up to 16 weeks, and follow-up observation was done at 20 weeks. The primary endpoint for efficacy was the rate of ACR 20 at 16 weeks (4 weeks after the last dose). Secondary endpoints included rates of ACR 50 and ACR 70 at 16 weeks (4 weeks after the last dose).
Among 359 enrolled patients, the safety evaluation sets, the full analysis sets, and PPS (per protocol set) were 359, 354, and 307, respectively.
An infusion reaction was defined as an adverse event occurring within 24 hours of study drug administration.
Where [5] appears, read: 0 mg/kg (placebo)+MTX 10-25 mg/week oral (control group).
Where [6] appears, read: 2 mg/kg MRA i.v. at 4-week intervals x4, with MTX or MTX placebo 10-25 mg/week oral.
Where [7] appears, read: 4 mg/kg MRA i.v. at 4-week intervals x4, with MTX or MTX placebo 10-25 mg/week oral.
The mark [8] stands for this setting: 8 mg/kg MRA i.v. at 4-week intervals x4, with MTX or MTX placebo 10-25 mg/week oral.

As for `CN(Cc1cnc2nc(N)nc(N)c2n1)c1ccc(C(=O)N[C@@H](CCC(=O)O)C(=O)O)cc1` [MTX, methotrexate], in data set [1] (MTX alone (MRA placebo), Week 16), the “Swollen joint count, Change from Baseline, Mean ± SD” value is reported as −5.7 ± 6.1. Also, in data set [2] (setting [5]), the “ACR 20” value amounted to 40.8%, the “ACR 50” value was determined as 28.6% and the “ACR 70” value came to 16.3%.

Take “MRA: recombinant humanised anti-human interleukin-6 receptor monoclonal antibody of the IgG1 sub-class that inhibits the function of IL-6”: in data set [3], the “development of anti-MRA antibodies” value is on record as “None”. Also, the “serious adverse events of which causal relationship could not be denied: hypersensitivity” value in data set [4] (2 mg/kg MRA group) was “four patients of hypersensitivity”. For the same compound, the “serious adverse events of which causal relationship could not be denied: hypersensitivity” value in data set [4] (4 mg/kg MRA group) is “one patient of hypersensitivity”. In addition, in data set [4] (MRA groups), the “Atherogenic Index” value is “no overall change”; the “laboratory data relating to lipids (total cholesterol, HDL cholesterol and triglyceride)” value is “increase”. Moreover, in data set [4] (across treatment groups), the “number of patients experiencing an infusion reaction (adverse event within 24 hours of study drug administration)” value was “possible inverse dose-response”. In data set [4] (equivalent to elevations observed in other patients with rheumatoid arthritis), the “ALT and AST levels (hepatic functions)” value is reported as “elevation”. For the same compound, in data set [4] (in a dose dependent manner), the “CRP and ESR (parameters for disease activity)” value is “decreases of CRP and ESR”; the “hemoglobin (parameter for disease activity)” value is reported as “elevation of hemoglobin”. The neutrophil count result in data set [4] (in some patients) is on record as “Slight transient decrease”. Also, the safety entry in data set [4] (in vivo) is “confirmed”. Also, in data set [1] (2 mg/kg MRA, with MTX or MTX placebo, Week 16), the “Swollen joint count, Change from Baseline, Mean ± SD” value is listed as −4.5 ± 5.7. Moreover, the “Swollen joint count, Change from Baseline, Mean ± SD” value in data set [1] (4 mg/kg MRA, with MTX or MTX placebo, Week 16) was −5.8 ± 4.1. In addition, in data set [1] (8 mg/kg MRA group vs MTX group, Week 16), the “Swollen joint count, mean difference (95% CI) to the MTX group” value was −2.31 (−4.07, −0.55). The “Swollen joint count, Change from Baseline, Mean ± SD” value in data set [1] (8 mg/kg MRA, with MTX or MTX placebo, Week 16) was −8.4 ± 4.6. Moreover, the “linear dose-relationship of reduction in swollen joint count” value in data set [1] (2, 4, 8 mg/kg MRA groups, monotherapy p<0.001, combination p=0.004) is on record as “statistically significant linear dose-relationship”. Also, in data set [2] (setting [6]), the “ACR 20” value came to 30.8%, the “ACR 50” value stood at 5.8% and the “ACR 70” value was found to be 1.9%. For the same compound, in data set [2] (setting [7]), the “ACR 20” value was found to be 61.1%, the “ACR 50” value is given as 27.8% and the “ACR 70” value is on record as 5.6%. In data set [2] (setting [8]), the “ACR 20” value came out at 62.7%, the “ACR 50” value is on record as 41.2% and the “ACR 70” value turned out to be 15.7%. Further, in data set [2] (2, 4, 8 mg/kg MRA alone groups), the “dose dependency in ACR 20 improvement rate” value was “statistically significant dose dependency”. Further, the “dose dependent response for ACR50 and ACR70 improvement rate” value in data set [2] (2, 4, 8 mg/kg MRA, alone and MTX-combined groups) is given as “statistically significant dose dependent response”. In data set [2] (in vivo), the “dose-response (overall result)” value was “clear dose-response” and the “effectiveness to treat patients with rheumatoid arthritis” value is “confirmed”.
